Legend:
[1] = Thermal stability test (storage at 60° C.); format: physicochemical; conditions: p-Toluenesulfonate; for Purity (%): stored at 60° C.
Text: The purity of Form A was detected at 0, 10 and 30 days, which was based to deduce the thermal stability of Form A. The thermal stability of Form B and Form C were also deduced by this method.

[2] = Light stability test (illumination 4500 lx±500 lx); format: physicochemical; conditions: p-Toluenesulfonate; for Purity (%): illumination 4500 lx±500 lx
Text: The purity of Form A was detected at 0, 10 and 30 days, which was based to deduce to the light stability of Form A. The light stability of Form B and Form C were also deduced by this method.

[3] = Hygroscopicity test (high moisture environment of 92.5%); format: physicochemical; conditions: p-Toluenesulfonate; for Purity (%): high moisture environment of 92.5%
Text: The purity of Form A was detected at 0, 10 and 30 days, which was based to deduce the hygroscopicity of Form A. The hygroscopicities of Form B and Form C were also deduced by this method.

[4] = Drug absorption in SD rat, intragastric administration; format: in vivo, SD rat (Sprague Dawley rat); conditions: ig, 30 mg/kg, plasma, p-Toluenesulfonate
Protocol: Intragastric administration (ig): 16 healthy SD rats, male, weighed 200˜250 g, and grouped into 4 groups randomly, were each administered intragastrically with a drug:the compound (21.68 mg/kg) prepared according to Example 1, Form A, B or C of p-toluenesulfonate of the compound (30 mg/kg). The blood samples were collected at 0.5, 1.0, 1.5, 2.0, 3.0, 5.0, 7.0, 9.0, 12 and 24 hours after administration, which were then isolated to prepare the plasma. The concentration of the drug in the plasma was determined by means of liquid chromatography/mass spectrometry, and the concentration-time curve was obtained.

[5] = tested on: human ovarian cancer SKOV-3; test: Tumor-inhibitory effect on SKOV-3 transplanted to nude mouse; format: in vivo, BALB/cA nude mouse; conditions: 100 mg/kg ig twice a day
Protocol: A tumor SKOV-3 in vigorous growth period was selected and cut into several uniform bits of a size of about 1.5 mm^3, which was inoculated subcutaneously to the right armpit of the BALB/cA nude mice using trocar under sterile conditions. The diameters of the transplanted tumors of nude mice were measured with a vernier caliper. The animals were grouped randomly when the tumors grew to a size of 80-100 mm^3. The tested animal group were intragastrically administrated through mouth as mentioned above once a day for 3 weeks continuously. The positive control drug MMC (Mitomycin) was intravenously administered once on the first day with a dose of 5 mg/kg. The negative control group were administered with 0.5% CMC-Na (Carboxymethyl Cellulose Sodium) with a dose of 0.2 mL/per mouse. The long axis (a) and the short axis (b) of the tumors were measured twice every week and the nude mice were weighed at the same time. According to the formula V=ab^2/2, the tumor volume (mm^3) could be calculated, based on which the relative tumor volume (RTV) was calculated (Calculation Formula: RTV=Vt/V0, wherein V0 represents the tumor volume measured at the grouping time of administration, and Vt represents the tumor volume measured each time). The relative tumor proliferation rate T/C (%) was chosen as the index to evaluate the anti-tumor activity, which can be calculated according to the following formula: T/C (%)=(TRTV/CRTV)×100
TRTV: RTV of the treated group; CRTV: RTV of the negative control group
V0 represents the tumor volume before the administration, and V21 represents the tumor volume after 3 weeks of continuous administration.
According to the experimental method mentioned above, the tumor-bearing nude mice, into which the human ovarian cancer SKOV-3, the human lung cancer Calu-3, and the human lung cancer A549 were transplanted respectively, were intragastrically administrated with Form B (100 mg/kg) of the present invention through mouth twice a day for 3 weeks continuously.
According to the experimental method mentioned above, the tumor-bearing nude mice, into which the human ovarian cancer SKQV-3, the human lung cancer Calu-3, and the human lung cancer A549 were transplanted respectively, were intragastrically administrated with Form C (100 mg/kg) of the present invention through mouth twice a day for 3 weeks continuously.

[6] = tested on: human lung cancer Calu-3; test: Tumor-inhibitory effect on Calu-3 transplanted to nude mouse; format: in vivo, nude mice; conditions: 100 mg/kg ig twice a day, 3 weeks, p-Toluenesulfonate
Protocol: (§1) The diameters of the transplanted tumors of nude mice were measured with a vernier caliper. The animals were grouped randomly when the tumors grew to a size of 80-100 mm^3. […] The positive control drug MMC (Mitomycin) was intravenously administered once on the first day with a dose of 5 mg/kg. The negative control group were administered with 0.5% CMC-Na (Carboxymethyl Cellulose Sodium) with a dose of 0.2 mL/per mouse. The long axis (a) and the short axis (b) of the tumors were measured twice every week and the nude mice were weighed at the same time. […] RTV=Vt/V0, wherein V0 represents the tumor volume measured at the grouping time of administration, and Vt represents the tumor volume measured each time). The relative tumor proliferation rate T/C (%) was chosen as the index to evaluate the anti-tumor activity, which can be calculated according to the following formula: T/C (%)=(TRTV/CRTV)×100 TRTV: RTV of the treated group; CRTV: RTV of the negative control group The standard for evaluating the effectiveness: […]

[7] = tested on: human lung cancer A549; test: Tumor-inhibitory effect on A549 transplanted to nude mouse; format: in vivo, nude mice; conditions: 100 mg/kg ig twice a day, 3 weeks, p-Toluenesulfonate
Protocol: as §1

[8] = Toxicity test of long-term administration; format: in vivo; conditions: SD rats, ig, 20, 50, 100, 500 or 800 mg/(kg·day), four weeks
Protocol: 80 healthy SD rats, male and weighed 200˜250 g, were grouped into 16 groups randomly, and were each intragastrically administered with Form A, B or C of the p-toluenesulfonate of the compound of formula (I) or a blank solvent (Five test groups with the dose of 20, 50, 100, 500 or 800 mg/(kg·day) and a solvent control group were set).

C=CC(=O)Nc1ccc2ncnc(Nc3ccc(OCc4cccc(F)c4)c(Cl)c3)c2c1.Cc1ccc(S(=O)(=O)O)cc1 [Form B, N-{4-[3-chloro-4-(3-fluoro-benzyloxy)phenylamino]-quinazolin-6-yl}-acrylamide p-Toluenesulfonate]
thermal stability ([1]; 60° C., one month, in words): excellent | Purity (%) ([1]; detect time day 0): 99.26% | Purity (%) ([1]; detect time day 10): 99.21% | Purity (%) ([1]; detect time day 30): 99.11% | light stability ([2]; 4500 lx±500 lx, one month, in words): excellent | Purity (%) ([2]; detect time 0): 99.26% | Purity (%) ([2]; detect time 10): 99.26% | Purity (%) ([2]; detect time 30): 99.24% | stability under the environment of high moisture ([3]; 92.5% moisture, one month, in words): very stable | Purity (%) ([3]; detect time 0): 99.26% | Purity (%) ([3]; detect time 10): 99.25% | Purity (%) ([3]; detect time 30): 99.24% | AUC0-t [4]: 978 ng·h/mL | relative tumor proliferation rate T/C ([5]; SKOV-3, 3 weeks, p-Toluenesulfonate): 28.5% | tumor inhibitory effects ([5]; summary in words for SKOV-3, Calu-3 and A549 models): significant tumor inhibitory effects | relative tumor proliferation rate T/C [6]: 35.1% | relative tumor proliferation rate T/C [7]: 56.3% | food intake [8]: normal | physical signs, appearance, behaviors, activities or shape of dejecta [8]: no abnormality | weight and weight increase of the rats [8]: basically similar to the solvent control group

— patent publication US9102629B2, “Polymorphic forms of 4-phenylamine quinazoline derivative, the preparation method and uses thereof” (priority 2008, dated 2015)
